Test results taken from US11473045B2, “Device for in-vitro modelling in-vivo tissues of organs” (priority 2013, dated 2022).

Test system: Lung bronchial epithelial cells (16HBEo-)
Description: FIG. 14 illustrates the effects of a physiologic (10% linear), cyclic mechanical strain on the permeability of an epithelial barrier. Lung bronchial epithelial cells (16HBEo-) were seeded at a density of 250'000 cells/cm^2 onto the fibronectin-coated culturing membrane. The cells were allowed to adhere and to grow for 72 h. The cells were exposed to cyclic strain (10% linear, 0.2 Hz) for 19 h, whereas the control was kept at static conditions. […] After 2 h of incubation, the permeability of each molecule was measured with a fluorescence multiplate reader (Tecan Infinite M1000; Ex:460/Em:515 & Ex:553/Em:627).

Question: Which “transmembrane permeability of stretched cells compared to control cells in static conditions” value does the source give for FITC-sodium here?
Answer: significantly increased transmembrane permeability
